Test results taken from paper PMC8429728, “TNK1 is a ubiquitin-binding and 14-3-3-regulated kinase that can be targeted to block tumor growth” (Nature Communications, 2021).
Where two headings read alike, the source gives them in different places.

Assays:
Test in all cases: biochemical
Set-up in all cases: Reaction Biology 371-kinase panel at Km ATP, per cent enzyme activity relative to DMSO, single dose in duplicate
Settings in all cases: duplicate measurements, Km ATP
STK21/CIT = STK21/CIT (Homo sapiens, UniProt O14578)
In short: (§1)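 Percent kinase activity relative to vehicle (DMSO) is reported for a 371-kinase in vitro panel at 300 nM compound; IC50 values derive from variable-slope sigmoidal fits with the lower plateau fixed at 0.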

ERK2/MAPK1 = ERK2/MAPK1 (Homo sapiens, UniProt P28482)
In short: as §1

PBK/TOPK = PBK/TOPK (Homo sapiens, UniProt Q96KB5)
In short: as §1

CDK5/p35 = target: T1, CDK5/p35 (Homo sapiens, UniProt Q00535)
T1 construct: p35
T1 sequence (Q00535 whole entry): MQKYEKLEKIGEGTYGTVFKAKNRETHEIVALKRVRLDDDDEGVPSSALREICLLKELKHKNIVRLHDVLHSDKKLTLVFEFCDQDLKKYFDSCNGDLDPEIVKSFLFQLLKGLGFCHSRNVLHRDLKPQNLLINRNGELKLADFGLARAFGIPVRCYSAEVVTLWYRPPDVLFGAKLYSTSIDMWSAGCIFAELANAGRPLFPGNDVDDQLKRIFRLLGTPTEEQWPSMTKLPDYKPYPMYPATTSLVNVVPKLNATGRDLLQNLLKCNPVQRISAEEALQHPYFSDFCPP
T1 sequence (Q15078 whole entry partner): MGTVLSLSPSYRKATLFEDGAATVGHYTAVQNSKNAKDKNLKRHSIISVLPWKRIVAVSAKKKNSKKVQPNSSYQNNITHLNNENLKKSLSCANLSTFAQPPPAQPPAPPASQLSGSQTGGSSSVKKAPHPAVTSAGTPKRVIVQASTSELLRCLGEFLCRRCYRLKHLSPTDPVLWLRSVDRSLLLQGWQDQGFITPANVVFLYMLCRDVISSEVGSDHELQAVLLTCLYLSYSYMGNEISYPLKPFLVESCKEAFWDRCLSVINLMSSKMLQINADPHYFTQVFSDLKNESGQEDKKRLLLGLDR
In short: as §1

GRK5 = GRK5 (Homo sapiens, UniProt P34947)
In short: as §1

P38d/MAPK13 = P38d/MAPK13 (Homo sapiens, UniProt O15264)
In short: as §1

EPHB3 = EPHB3 (Homo sapiens, UniProt P54753)
EPHB3, sequence (P54753 whole entry): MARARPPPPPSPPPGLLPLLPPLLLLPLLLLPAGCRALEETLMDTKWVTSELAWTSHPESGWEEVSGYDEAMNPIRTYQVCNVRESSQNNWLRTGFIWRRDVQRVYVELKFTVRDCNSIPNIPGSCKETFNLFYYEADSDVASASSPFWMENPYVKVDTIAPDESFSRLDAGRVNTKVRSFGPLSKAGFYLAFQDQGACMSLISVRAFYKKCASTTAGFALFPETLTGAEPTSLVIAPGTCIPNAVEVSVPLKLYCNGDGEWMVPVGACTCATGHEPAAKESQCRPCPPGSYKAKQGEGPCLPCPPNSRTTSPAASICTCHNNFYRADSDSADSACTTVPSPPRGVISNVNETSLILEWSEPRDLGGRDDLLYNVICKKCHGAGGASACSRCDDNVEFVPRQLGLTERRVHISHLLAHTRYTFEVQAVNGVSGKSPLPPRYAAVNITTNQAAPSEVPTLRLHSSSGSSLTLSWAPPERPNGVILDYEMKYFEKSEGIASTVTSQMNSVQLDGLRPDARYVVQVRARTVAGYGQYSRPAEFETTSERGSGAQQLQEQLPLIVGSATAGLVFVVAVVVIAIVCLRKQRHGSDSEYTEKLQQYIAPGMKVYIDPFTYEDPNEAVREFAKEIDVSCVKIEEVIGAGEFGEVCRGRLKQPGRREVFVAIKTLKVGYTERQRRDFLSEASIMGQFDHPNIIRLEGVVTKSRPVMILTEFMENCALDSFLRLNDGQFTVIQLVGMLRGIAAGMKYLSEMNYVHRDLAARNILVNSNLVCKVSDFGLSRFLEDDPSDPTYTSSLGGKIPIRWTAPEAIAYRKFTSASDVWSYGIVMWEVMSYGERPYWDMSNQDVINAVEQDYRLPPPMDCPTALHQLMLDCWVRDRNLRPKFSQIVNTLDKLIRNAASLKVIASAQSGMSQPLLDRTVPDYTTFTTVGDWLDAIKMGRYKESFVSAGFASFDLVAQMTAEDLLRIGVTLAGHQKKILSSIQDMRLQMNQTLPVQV
In short: as §1

STK32C/YANK3 = STK32C/YANK3 (Homo sapiens, UniProt Q86UX6)
STK32C/YANK3, sequence (Q86UX6 whole entry): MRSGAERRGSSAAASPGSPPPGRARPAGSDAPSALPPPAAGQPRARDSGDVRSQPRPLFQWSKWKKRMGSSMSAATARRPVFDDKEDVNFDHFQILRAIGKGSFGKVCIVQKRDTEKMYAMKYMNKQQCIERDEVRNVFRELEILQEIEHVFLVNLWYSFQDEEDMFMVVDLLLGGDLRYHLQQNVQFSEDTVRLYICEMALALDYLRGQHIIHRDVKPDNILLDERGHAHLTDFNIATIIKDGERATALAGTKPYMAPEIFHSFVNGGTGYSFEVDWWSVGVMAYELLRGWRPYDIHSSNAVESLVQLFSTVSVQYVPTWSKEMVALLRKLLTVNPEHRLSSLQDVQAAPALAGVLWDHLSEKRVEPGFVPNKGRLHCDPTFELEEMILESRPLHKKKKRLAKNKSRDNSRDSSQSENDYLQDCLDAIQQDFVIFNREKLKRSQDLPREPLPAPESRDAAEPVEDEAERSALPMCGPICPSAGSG
In short: as §1

NLK = NLK (Homo sapiens, UniProt Q9UBE8)
In short: as §1

STK39/STLK3 = STK39/STLK3 (Homo sapiens, UniProt Q9UEW8)
In short: as §1

MASTL = MASTL (Homo sapiens, UniProt Q96GX5)
In short: as §1

c-MER = target: T2, c-MER (Homo sapiens, UniProt Q12866)
T2 construct: gene MERTK
In short: as §1

PRKX = PRKX (Homo sapiens, UniProt P51817)
PRKX, sequence (P51817 whole entry): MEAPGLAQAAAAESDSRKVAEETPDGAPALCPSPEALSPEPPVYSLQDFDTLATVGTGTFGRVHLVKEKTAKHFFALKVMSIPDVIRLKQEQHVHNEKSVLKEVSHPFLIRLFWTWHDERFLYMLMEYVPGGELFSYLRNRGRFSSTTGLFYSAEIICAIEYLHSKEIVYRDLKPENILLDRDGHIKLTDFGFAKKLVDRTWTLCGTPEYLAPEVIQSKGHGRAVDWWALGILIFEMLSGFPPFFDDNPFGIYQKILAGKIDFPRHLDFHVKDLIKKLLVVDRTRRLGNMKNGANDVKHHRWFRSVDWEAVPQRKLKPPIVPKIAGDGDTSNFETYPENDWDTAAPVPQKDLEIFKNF
In short: as §1

EPHA3 = EPHA3 (Homo sapiens, UniProt P29320)
In short: as §1

HIPK4 = HIPK4 (Homo sapiens, UniProt Q8NE63)
In short: as §1

KDR/VEGFR2 = KDR/VEGFR2 (Homo sapiens, UniProt P35968)
KDR/VEGFR2, sequence (P35968 whole entry): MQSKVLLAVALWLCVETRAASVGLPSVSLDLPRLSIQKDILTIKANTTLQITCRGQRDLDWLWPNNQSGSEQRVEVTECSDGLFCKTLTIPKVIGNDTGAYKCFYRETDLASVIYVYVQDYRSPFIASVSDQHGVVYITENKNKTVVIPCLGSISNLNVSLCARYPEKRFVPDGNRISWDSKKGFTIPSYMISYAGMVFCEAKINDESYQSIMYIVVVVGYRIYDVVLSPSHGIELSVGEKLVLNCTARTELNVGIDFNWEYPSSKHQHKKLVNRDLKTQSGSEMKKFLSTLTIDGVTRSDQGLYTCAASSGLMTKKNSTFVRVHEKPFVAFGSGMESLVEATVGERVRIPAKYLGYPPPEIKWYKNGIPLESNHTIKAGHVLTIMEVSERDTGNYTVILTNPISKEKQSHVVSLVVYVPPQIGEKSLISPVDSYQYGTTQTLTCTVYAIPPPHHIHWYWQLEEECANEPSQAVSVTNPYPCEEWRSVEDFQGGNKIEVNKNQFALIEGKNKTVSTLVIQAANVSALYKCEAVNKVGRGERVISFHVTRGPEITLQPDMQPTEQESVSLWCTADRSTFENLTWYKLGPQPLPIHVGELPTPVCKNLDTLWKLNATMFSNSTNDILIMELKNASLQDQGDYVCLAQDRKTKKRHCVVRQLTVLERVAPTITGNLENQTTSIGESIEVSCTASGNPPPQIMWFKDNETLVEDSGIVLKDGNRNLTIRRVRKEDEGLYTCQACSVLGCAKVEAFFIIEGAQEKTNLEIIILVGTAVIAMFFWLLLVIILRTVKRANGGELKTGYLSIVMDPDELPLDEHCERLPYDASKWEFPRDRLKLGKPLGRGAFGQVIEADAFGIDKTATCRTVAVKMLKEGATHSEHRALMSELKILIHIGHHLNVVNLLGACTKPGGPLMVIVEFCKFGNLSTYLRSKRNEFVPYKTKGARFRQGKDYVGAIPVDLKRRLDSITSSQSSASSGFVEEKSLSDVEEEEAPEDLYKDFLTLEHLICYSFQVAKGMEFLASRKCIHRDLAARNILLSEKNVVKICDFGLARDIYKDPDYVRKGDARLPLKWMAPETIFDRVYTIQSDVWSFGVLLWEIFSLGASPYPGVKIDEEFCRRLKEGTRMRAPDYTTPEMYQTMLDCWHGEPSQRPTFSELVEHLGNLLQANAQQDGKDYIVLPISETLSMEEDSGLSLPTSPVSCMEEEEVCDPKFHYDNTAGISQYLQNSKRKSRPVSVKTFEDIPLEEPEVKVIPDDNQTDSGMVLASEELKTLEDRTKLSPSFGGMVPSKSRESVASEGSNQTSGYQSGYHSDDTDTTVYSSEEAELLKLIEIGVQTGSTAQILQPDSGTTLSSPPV
In short: as §1

CHK1 = target: T3, CHK1 (Homo sapiens, UniProt O14757)
T3 construct: gene CHEK1
T3 sequence (O14757 whole entry): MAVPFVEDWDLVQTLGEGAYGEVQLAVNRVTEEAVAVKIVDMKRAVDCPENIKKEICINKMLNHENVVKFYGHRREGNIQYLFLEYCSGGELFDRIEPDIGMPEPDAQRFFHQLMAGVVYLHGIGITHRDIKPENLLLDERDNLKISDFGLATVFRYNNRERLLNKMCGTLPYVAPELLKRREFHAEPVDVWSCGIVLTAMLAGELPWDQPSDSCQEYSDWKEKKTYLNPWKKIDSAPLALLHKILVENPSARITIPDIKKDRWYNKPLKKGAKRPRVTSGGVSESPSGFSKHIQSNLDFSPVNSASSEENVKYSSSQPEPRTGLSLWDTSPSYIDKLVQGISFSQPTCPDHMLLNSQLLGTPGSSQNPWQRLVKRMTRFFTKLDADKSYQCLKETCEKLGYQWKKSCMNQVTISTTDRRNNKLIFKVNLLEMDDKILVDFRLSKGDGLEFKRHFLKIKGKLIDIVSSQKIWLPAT
In short: as §1

ERBB2/HER2 = ERBB2/HER2 (Homo sapiens, UniProt P04626)
In short: as §1

PAK5 = PAK5 (Homo sapiens, UniProt Q9P286)
In short: as §1

CSK = CSK (Homo sapiens, UniProt P41240)
CSK, sequence (P41240 whole entry): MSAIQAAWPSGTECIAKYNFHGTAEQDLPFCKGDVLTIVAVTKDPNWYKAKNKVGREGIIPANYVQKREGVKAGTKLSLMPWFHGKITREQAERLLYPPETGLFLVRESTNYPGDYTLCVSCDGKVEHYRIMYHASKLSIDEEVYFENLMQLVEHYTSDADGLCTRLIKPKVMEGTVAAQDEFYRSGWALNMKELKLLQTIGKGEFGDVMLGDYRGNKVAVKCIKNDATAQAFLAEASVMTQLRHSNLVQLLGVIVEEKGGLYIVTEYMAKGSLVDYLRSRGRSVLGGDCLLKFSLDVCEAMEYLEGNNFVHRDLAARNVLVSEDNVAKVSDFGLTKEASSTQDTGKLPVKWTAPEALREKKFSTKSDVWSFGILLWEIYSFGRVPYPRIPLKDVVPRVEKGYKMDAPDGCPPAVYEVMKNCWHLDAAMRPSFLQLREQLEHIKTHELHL
In short: as §1

[1] = read-out: % Enzyme Activity (relative to DMSO controls) / TP-0005801 (0.3µM) / Data 1
[2] = read-out: % Enzyme Activity (relative to DMSO controls) / TP-0005801 (0.3µM) / Data 2

COc1cc(N2CCN(C)CC2)c(C)cc1Nc1ncc(Br)c(Nc2cccnc2N(C)C)n1 [TP-5801]
remaining activity at 0.3 µM (STK21/CIT; [1]): 107% | remaining activity at 0.3 µM (STK21/CIT; [2]): 105% | remaining activity at 0.3 µM (ERK2/MAPK1; [1]): 87.1% | remaining activity at 0.3 µM (ERK2/MAPK1; [2]): 86.1% | remaining activity at 0.3 µM (PBK/TOPK; [1]): 107% | remaining activity at 0.3 µM (PBK/TOPK; [2]): 98.9% | remaining activity at 0.3 µM (CDK5/p35; [1]): 99.5% | remaining activity at 0.3 µM (CDK5/p35; [2]): 99.1% | remaining activity at 0.3 µM (GRK5; [1]): 92% | remaining activity at 0.3 µM (GRK5; [2]): 89.8% | remaining activity at 0.3 µM (P38d/MAPK13; [1]): 102% | remaining activity at 0.3 µM (P38d/MAPK13; [2]): 91.4% | remaining activity at 0.3 µM (EPHB3; [1]): 104% | remaining activity at 0.3 µM (EPHB3; [2]): 102% | remaining activity at 0.3 µM (STK32C/YANK3; [1]): 90.2% | remaining activity at 0.3 µM (STK32C/YANK3; [2]): 83.2% | remaining activity at 0.3 µM (NLK; [1]): 92.3% | remaining activity at 0.3 µM (NLK; [2]): 85.8% | remaining activity at 0.3 µM (STK39/STLK3; [1]): 61.2% | remaining activity at 0.3 µM (STK39/STLK3; [2]): 61.1% | remaining activity at 0.3 µM (MASTL; [1]): 97% | remaining activity at 0.3 µM (MASTL; [2]): 96.1% | remaining activity at 0.3 µM (c-MER; [1]): 106% | remaining activity at 0.3 µM (c-MER; [2]): 104% | remaining activity at 0.3 µM (PRKX; [1]): 93.7% | remaining activity at 0.3 µM (PRKX; [2]): 92.5% | remaining activity at 0.3 µM (EPHA3; [1]): 103% | remaining activity at 0.3 µM (EPHA3; [2]): 97.5% | remaining activity at 0.3 µM (HIPK4; [1]): 79.6% | remaining activity at 0.3 µM (HIPK4; [2]): 78.6% | remaining activity at 0.3 µM (KDR/VEGFR2; [1]): 93.5% | remaining activity at 0.3 µM (KDR/VEGFR2; [2]): 93.2% | remaining activity at 0.3 µM (CHK1; [1]): 104% | remaining activity at 0.3 µM (CHK1; [2]): 101% | remaining activity at 0.3 µM (ERBB2/HER2; [1]): 82.3% | remaining activity at 0.3 µM (ERBB2/HER2; [2]): 81.7% | remaining activity at 0.3 µM (PAK5; [1]): 86.5% | remaining activity at 0.3 µM (PAK5; [2]): 85.3% | remaining activity at 0.3 µM (CSK; [1]): 92.6% | remaining activity at 0.3 µM (CSK; [2]): 89.8%
